Residues, ends and D or L forms follow the SMILES beside them.
Experiments:
Assay in all cases: In-house protein microarrays (with or without 5 mM DTT), protein named per line
Assay type in all cases: binding
SH2 and PTB domains [1] = target: T1, SH2 and PTB domains (Homo sapiens, UniProt P42680); conditions: protein TEC
T1 construct: thioredoxin; made in house; host or cells: BL21(DE3)pLysS E. coli
T1 sequence (P42680 1-631): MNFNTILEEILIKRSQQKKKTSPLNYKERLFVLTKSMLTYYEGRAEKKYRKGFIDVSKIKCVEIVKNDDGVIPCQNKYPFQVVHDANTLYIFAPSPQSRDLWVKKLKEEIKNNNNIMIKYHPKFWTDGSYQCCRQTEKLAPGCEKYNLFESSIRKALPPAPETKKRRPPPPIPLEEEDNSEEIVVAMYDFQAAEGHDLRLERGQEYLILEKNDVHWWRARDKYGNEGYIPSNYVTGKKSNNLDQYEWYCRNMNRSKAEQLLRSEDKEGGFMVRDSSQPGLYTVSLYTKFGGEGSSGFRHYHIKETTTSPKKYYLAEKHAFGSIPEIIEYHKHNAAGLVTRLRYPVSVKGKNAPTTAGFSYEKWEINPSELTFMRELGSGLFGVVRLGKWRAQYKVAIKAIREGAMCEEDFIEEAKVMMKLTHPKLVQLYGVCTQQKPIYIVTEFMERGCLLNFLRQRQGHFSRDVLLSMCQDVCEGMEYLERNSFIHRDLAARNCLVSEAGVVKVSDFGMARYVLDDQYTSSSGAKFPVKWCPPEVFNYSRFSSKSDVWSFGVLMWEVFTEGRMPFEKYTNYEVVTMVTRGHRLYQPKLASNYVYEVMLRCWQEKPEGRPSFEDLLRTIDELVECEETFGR
How it was run: (§1)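 KD values come from rhodamine fluorescence of duplicate spots after subtraction of a thioredoxin control. Domains were printed at ~40 µM on aldehyde slides, blocked 1 h at room temperature in pH 7.8 HEPES/KCl buffer with 5 mM DTT and 1% BSA, then peptide-probed.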

SH2 and PTB domains [2] = target: T2, SH2 and PTB domains (Homo sapiens, UniProt P27986)
T2 construct: thioredoxin; made in house; host or cells: BL21(DE3)pLysS E. coli
How it was run: as §1

SH2 and PTB domains [3] = target: T3, SH2 and PTB domains (Homo sapiens, UniProt P08631); conditions: protein HCK
T3 construct: thioredoxin; made in house; host or cells: BL21(DE3)pLysS E. coli
How it was run: as §1

SH2 and PTB domains [4] = target: T4, SH2 and PTB domains (Homo sapiens, UniProt P29350)
T4 construct: thioredoxin; made in house; host or cells: BL21(DE3)pLysS E. coli
How it was run: as §1

SH2 and PTB domains [5] = target: T5, SH2 and PTB domains (Homo sapiens, UniProt P00519); conditions: protein ABL1
T5 construct: thioredoxin; made in house; host or cells: BL21(DE3)pLysS E. coli
How it was run: as §1

SH2 and PTB domains [6] = target: T6, SH2 and PTB domains (Homo sapiens, UniProt P52735); conditions: protein VAV2
T6 construct: thioredoxin; made in house; host or cells: BL21(DE3)pLysS E. coli
T6 sequence (P52735 1-878): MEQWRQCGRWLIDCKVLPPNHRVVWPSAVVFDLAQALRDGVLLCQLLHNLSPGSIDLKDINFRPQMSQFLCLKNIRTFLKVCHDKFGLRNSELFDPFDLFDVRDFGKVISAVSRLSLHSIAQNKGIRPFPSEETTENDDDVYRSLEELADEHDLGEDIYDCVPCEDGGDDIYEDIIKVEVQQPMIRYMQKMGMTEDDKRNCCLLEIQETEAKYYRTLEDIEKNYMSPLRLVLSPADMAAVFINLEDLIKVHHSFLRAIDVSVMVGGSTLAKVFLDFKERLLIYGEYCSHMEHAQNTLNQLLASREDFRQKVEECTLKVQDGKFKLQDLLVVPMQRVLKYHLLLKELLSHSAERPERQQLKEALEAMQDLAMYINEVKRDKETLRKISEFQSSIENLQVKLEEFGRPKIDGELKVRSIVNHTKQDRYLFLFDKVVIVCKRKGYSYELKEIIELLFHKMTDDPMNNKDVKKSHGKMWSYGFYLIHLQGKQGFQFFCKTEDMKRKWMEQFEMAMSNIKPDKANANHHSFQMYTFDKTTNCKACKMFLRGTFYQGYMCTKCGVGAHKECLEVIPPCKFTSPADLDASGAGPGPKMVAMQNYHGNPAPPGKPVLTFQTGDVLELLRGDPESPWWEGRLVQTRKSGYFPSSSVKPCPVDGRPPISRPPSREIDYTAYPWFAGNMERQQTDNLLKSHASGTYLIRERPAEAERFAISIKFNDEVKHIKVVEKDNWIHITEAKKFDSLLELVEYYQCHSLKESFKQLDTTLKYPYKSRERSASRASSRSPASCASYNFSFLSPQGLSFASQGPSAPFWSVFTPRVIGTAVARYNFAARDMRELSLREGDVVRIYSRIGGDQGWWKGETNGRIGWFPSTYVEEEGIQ
How it was run: as §1

SH2 and PTB domains [7] = target: T7, SH2 and PTB domains (Homo sapiens, UniProt P42684); conditions: protein ABL2
T7 construct: thioredoxin; made in house; host or cells: BL21(DE3)pLysS E. coli
How it was run: as §1

[8] = PM assay replicate # 39336, array fabrication # 39329
[9] = PM assay replicate # 39337, array fabrication # 39329
[10] = PM assay replicate # 39307, array fabrication # 39286

T2 sequence (P27986 whole entry, the tested form may be a part): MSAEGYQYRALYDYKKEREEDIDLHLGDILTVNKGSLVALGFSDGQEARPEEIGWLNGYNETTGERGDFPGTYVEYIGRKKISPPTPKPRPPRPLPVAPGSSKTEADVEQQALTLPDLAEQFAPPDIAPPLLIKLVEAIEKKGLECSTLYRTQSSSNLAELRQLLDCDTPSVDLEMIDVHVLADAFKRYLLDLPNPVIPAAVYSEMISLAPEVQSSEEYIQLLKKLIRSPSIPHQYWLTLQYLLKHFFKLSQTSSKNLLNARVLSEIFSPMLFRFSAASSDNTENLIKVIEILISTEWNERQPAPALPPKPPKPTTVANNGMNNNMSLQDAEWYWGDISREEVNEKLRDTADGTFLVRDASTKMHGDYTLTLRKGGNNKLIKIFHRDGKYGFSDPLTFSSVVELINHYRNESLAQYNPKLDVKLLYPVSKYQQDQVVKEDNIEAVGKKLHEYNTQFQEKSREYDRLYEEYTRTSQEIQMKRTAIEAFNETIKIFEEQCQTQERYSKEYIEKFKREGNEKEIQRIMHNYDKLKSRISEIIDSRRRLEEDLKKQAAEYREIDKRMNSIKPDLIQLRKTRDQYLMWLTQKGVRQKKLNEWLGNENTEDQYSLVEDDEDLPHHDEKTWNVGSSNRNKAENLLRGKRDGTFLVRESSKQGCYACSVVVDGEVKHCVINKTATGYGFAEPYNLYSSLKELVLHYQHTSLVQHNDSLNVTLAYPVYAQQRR
T7 sequence (P42684 whole entry, the tested form may be a part): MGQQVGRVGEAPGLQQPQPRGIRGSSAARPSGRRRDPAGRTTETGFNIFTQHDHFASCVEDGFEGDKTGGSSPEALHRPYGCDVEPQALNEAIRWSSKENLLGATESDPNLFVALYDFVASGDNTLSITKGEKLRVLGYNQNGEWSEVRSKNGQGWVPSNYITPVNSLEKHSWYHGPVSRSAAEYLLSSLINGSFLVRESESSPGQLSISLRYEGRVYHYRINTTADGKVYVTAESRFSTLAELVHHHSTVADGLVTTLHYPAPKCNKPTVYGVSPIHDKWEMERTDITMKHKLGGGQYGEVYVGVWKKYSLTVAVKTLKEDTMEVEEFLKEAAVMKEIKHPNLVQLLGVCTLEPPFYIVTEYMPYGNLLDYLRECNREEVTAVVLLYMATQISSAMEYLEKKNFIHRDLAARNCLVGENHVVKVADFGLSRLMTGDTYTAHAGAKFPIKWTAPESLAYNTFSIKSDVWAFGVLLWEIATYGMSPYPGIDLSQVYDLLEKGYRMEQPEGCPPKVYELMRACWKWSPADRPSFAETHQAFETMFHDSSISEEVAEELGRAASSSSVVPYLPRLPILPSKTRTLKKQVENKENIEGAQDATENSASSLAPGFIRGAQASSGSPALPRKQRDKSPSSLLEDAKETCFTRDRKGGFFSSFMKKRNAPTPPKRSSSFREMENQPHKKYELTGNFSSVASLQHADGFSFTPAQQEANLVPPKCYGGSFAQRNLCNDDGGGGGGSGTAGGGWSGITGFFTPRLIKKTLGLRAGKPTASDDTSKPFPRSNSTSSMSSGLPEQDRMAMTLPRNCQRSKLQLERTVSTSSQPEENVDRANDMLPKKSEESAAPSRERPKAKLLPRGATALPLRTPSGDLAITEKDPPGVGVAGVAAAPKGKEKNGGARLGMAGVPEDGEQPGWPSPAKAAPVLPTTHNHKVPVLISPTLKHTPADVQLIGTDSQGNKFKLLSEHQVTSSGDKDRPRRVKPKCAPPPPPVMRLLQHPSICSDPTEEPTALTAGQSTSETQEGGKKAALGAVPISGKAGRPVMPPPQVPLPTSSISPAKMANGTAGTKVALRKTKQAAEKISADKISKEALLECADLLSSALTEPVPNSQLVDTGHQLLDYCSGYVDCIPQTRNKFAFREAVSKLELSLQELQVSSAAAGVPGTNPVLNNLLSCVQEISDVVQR
T4 sequence (P29350 whole entry, the tested form may be a part): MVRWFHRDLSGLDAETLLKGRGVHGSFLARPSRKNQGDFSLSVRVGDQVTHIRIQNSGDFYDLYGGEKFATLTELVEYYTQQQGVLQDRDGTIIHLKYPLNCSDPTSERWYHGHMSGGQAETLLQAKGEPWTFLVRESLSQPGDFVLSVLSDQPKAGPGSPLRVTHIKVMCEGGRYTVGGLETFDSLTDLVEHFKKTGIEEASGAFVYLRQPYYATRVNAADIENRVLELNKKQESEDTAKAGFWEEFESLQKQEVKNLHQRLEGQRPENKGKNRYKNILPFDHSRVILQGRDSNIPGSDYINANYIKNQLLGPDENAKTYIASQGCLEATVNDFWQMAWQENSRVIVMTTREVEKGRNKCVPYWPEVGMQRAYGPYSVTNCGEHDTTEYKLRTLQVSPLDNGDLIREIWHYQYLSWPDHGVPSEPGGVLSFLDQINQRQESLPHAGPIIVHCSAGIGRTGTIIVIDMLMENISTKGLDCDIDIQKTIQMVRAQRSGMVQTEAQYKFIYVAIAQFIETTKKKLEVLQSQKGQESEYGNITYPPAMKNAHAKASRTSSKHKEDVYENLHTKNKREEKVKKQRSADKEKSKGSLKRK
T3 sequence (P08631 whole entry, the tested form may be a part): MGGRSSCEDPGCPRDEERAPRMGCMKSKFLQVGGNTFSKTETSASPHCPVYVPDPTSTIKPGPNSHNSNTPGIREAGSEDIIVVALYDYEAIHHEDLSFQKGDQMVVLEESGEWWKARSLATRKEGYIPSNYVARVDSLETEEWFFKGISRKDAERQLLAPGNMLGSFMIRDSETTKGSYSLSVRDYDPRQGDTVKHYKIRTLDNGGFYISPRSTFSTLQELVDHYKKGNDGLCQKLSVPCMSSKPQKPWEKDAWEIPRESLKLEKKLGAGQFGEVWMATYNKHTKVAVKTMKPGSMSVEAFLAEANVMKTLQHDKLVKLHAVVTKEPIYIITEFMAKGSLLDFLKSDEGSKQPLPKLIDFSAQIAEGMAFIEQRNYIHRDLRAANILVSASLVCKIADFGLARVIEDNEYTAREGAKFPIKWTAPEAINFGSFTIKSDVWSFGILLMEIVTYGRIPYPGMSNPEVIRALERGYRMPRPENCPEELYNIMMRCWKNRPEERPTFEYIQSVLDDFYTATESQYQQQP
T5 sequence (P00519 whole entry, the tested form may be a part): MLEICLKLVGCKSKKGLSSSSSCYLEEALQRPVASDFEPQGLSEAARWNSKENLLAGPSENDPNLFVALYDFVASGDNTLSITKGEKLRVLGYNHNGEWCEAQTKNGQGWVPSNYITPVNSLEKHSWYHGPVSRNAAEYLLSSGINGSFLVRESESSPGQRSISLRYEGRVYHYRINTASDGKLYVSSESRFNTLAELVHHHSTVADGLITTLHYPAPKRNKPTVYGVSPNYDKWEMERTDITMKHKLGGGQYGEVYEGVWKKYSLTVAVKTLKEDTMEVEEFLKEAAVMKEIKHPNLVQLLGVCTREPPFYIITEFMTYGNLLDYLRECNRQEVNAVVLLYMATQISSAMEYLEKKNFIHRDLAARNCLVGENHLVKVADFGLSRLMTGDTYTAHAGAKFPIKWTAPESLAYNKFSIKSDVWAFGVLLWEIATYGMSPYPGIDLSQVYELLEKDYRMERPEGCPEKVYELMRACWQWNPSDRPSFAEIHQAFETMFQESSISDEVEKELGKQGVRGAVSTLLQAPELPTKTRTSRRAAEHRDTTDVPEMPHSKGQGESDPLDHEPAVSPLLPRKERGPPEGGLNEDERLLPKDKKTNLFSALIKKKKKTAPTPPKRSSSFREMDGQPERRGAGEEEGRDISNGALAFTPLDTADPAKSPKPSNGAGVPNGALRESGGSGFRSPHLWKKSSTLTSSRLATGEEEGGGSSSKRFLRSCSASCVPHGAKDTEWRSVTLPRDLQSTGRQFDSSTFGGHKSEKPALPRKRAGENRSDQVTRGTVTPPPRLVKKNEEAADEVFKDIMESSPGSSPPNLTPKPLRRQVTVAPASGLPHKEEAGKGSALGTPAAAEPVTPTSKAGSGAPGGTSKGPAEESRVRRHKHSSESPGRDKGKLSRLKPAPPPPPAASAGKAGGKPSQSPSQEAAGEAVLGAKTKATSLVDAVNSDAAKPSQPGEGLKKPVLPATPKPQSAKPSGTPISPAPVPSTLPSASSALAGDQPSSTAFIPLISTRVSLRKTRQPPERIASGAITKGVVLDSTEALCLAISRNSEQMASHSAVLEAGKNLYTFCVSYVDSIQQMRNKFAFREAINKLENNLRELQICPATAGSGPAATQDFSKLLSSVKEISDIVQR

CC(C)C[C@H](NC(=O)[C@@H]1CCCN1)C(=O)N[C@@H](CCC(N)=O)C(=O)N[C@@H](CCCNC(=N)N)C(=O)N[C@@H](Cc1ccc(OP(=O)(O)O)cc1)C(=O)N[C@@H](CO)C(=O)N[C@@H](CCC(=O)O)C(=O)N[C@@H](CC(=O)O)C(=O)N1CCC[C@H]1C(=O)N[C@H](C(=O)N[C@H](C(=O)N1CCC[C@H]1C(=O)N[C@@H](CC(=O)O)C(=O)O)C(C)C)[C@@H](C)O [ErbB2 pY1112] (HELM PEPTIDE1{P.L.Q.R.[O=C([C@H](Cc1ccc(OP(=O)(O)O)cc1)N[*:1])[*:2]].S.E.D.P.T.V.P.D}$$$$V2.0)
Kd (SH2 and PTB domains [1]; PM assay replicate # 39331, array fabrication # 39329): 26530 nM
Kd (SH2 and PTB domains [1]; [8]): 5070 nM

CC(C)C[C@H](NC(=O)[C@@H]1CCCN1C(=O)[C@H](C)NC(=O)[C@@H](NC(=O)[C@H](Cc1ccc(OP(=O)(O)O)cc1)NC(=O)CNC(=O)[C@H](CC(=O)O)NC(=O)[C@@H](NC(=O)[C@@H](N)CCC(=O)O)[C@@H](C)O)C(C)C)C(=O)N[C@H](C(=O)N[C@@H](CS)C(=O)N[C@@H](CO)C(=O)N[C@@H](CC(=O)O)C(=O)O)[C@@H](C)O [ErbB2 pY1127]
Kd (SH2 and PTB domains [2]; protein PIK3R1-N, PM assay replicate # 39336, array fabrication # 39329): 19 nM
Kd (SH2 and PTB domains [2]; protein PIK3R1-N, PM assay replicate # 39337, array fabrication # 39329): 220 nM
Kd (SH2 and PTB domains [3]; [8]): 4360 nM
Kd (SH2 and PTB domains [3]; [9]): 250 nM
Kd (SH2 and PTB domains [4]; protein PTPN6-NC, PM assay replicate # 39336, array fabrication # 39329): 1620 nM
Kd (SH2 and PTB domains [4]; protein PTPN6-NC, PM assay replicate # 39337, array fabrication # 39329): 1620 nM
Kd (SH2 and PTB domains [5]; [8]): 300 nM
Kd (SH2 and PTB domains [5]; [9]): 530 nM
Kd (SH2 and PTB domains [1]; [8]): 1600 nM
Kd (SH2 and PTB domains [1]; [9]): 40 nM
Kd (SH2 and PTB domains [1]; PM assay replicate # 39603, array fabrication # 39392): 250 nM
Kd (SH2 and PTB domains [6]; [8]): 1590 nM
Kd (SH2 and PTB domains [6]; [9]): 170 nM

CCN(CC)c1ccc2c(-c3ccc(C(=O)N[C@@H](CC(N)=O)C(=O)NCC(=O)N4CCC[C@H]4C(=O)N4CCC[C@H]4C(=O)N[C@@H](CCCCN)C(=O)N[C@@H](C)C(=O)N[C@@H](CCC(=O)O)C(=O)N[C@@H](CC(=O)O)C(=O)N[C@@H](CCC(=O)O)C(=O)N[C@@H](Cc4ccc(OP(=O)(O)O)cc4)C(=O)N[C@H](C(=O)N[C@@H](CC(N)=O)C(=O)N[C@@H](CCC(=O)O)C(=O)N4CCC[C@H]4C(=O)N[C@@H](CC(C)C)C(=O)N[C@@H](Cc4ccc(O)cc4)C(=O)N[C@@H](CC(C)C)C(=O)N[C@@H](CC(=O)O)C(=O)O)C(C)C)cc3C(=O)[O-])c3ccc(=[N+](CC)CC)cc-3oc2c1 [ErbB4 1202 (18-mer)] (HELM PEPTIDE1{[CCN(CC)c1ccc2c(-c3ccc(C(=O)[*:2])cc3C(=O)[O-])c3ccc(=[N+](CC)CC)cc-3oc2c1].N.G.P.P.K.A.E.D.E.[O=C([C@H](Cc1ccc(OP(=O)(O)O)cc1)N[*:1])[*:2]].V.N.E.P.L.Y.L.D}$$$$V2.0)
Kd (SH2 and PTB domains [2]; protein PIK3R1-NC, PM assay replicate # 39307, array fabrication # 39286): 170 nM
Kd (SH2 and PTB domains [2]; protein PIK3R1-NC, PM assay replicate # 39337, array fabrication # 39329): 540 nM
Kd (SH2 and PTB domains [7]; [10]): 1000 nM
Kd (SH2 and PTB domains [7]; [9]): 970 nM
Kd (SH2 and PTB domains [6]; [10]): 9500 nM

CC[C@H](C)[C@H](NC(=O)[C@H](CC(N)=O)NC(=O)[C@H](CC(N)=O)NC(=O)[C@H](CCCCN)NC(=O)[C@H](CC(C)C)NC(=O)[C@H](Cc1ccc(OP(=O)(O)O)cc1)NC(=O)[C@H](CCC(=O)O)NC(=O)[C@H](C)NC(=O)[C@H](CCCCN)NC(=O)CNC(=O)[C@H](CC(C)C)NC(=O)[C@@H](NC(=O)[C@H](CC(N)=O)NC(=O)[C@H](C)NC(=O)[C@@H](N)Cc1ccccc1)[C@@H](C)O)C(=O)N[C@@H](CC(C)C)C(=O)N[C@@H](CO)C(=O)N[C@@H](CC(=O)O)C(=O)O [ErbB4 pY1221 (18-mer)] (HELM PEPTIDE1{F.A.N.T.L.G.K.A.E.[O=C([C@H](Cc1ccc(OP(=O)(O)O)cc1)N[*:1])[*:2]].L.K.N.N.I.L.S.D}$$$$V2.0)
Kd (SH2 and PTB domains [3]; [10]): 70 nM
Kd (SH2 and PTB domains [4]; protein PTPN6-C, PM assay replicate # 39307, array fabrication # 39286): 716010 nM
Kd (SH2 and PTB domains [5]; [10]): 250 nM
Kd (SH2 and PTB domains [7]; [10]): 280 nM
Kd (SH2 and PTB domains [7]; PM assay replicate # 39352, array fabrication # 39336): 910 nM

From publication PMC3433420 (PLoS ONE, 2012)
